# Measured values: US6737383B1, “Herbicidal oxadiazolidines” (priority 1999, dated 2004)
# Tests used:
# corn = experiment: Test B pre/postemergence corn; type: in vivo, Zea mays; details: for Corn plant response rating: scale of 0 to 10 where 0 is no effect and 10 is complete control
# In short: (§1)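 Test chemicals in a non-phytotoxic solvent mixture with surfactant were sprayed preemergence onto planted seeds and postemergence onto plants 2 to 18 cm tall (1- to 4-leaf stage). After twelve to sixteen days in a greenhouse, injury was visually rated against untreated controls from 0 (no effect) to 10 (complete control).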
# smallflower flatsedge = experiment: Test B flood test smallflower flatsedge; type: in vivo, Cyperus difformis
# In short: (§2)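 Flood test on plants grown to the 2-leaf stage; treated plants kept in greenhouse twelve to sixteen days, then visually rated against controls on a 0 (no effect) to 10 (complete control) scale.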
# surinam grass = experiment: Test B pre/postemergence surinam grass; type: in vivo, Brachiaria decumbens
# In short: as §1
# morningglory = experiment: Test B pre/postemergence morningglory; type: in vivo, Ipomoea hederacea; details: for Morningglory plant response rating: scale of 0 to 10 where 0 is no effect and 10 is complete control
# In short: as §1
# wild oat = experiment: Test B pre/postemergence wild oat; type: in vivo, Avena fatua; details: for Wild oats plant response rating: scale of 0 to 10 where 0 is no effect and 10 is complete control
# In short: as §1
# velvetleaf = experiment: Test B pre/postemergence velvetleaf; type: in vivo, Abutilon theophrasti; details: for Velvetleaf plant response rating: scale of 0 to 10 where 0 is no effect and 10 is complete control
# In short: as §1
# rice = experiment: Test B flood test rice; type: in vivo, Oryza sativa
# In short: as §2
# rape = experiment: Test B pre/postemergence rape; type: in vivo, Brassica napus; details: for Rape plant response rating: scale of 0 to 10 where 0 is no effect and 10 is complete control
# In short: as §1
# wheat = experiment: Test B pre/postemergence wheat; type: in vivo, Triticum aestivum; details: for Wheat plant response rating: scale of 0 to 10 where 0 is no effect and 10 is complete control
# In short: as §1
# purple nutsedge = experiment: Test B pre/postemergence purple nutsedge; type: in vivo, Cyperus rotundus; details: for Nutsedge plant response rating: scale of 0 to 10 where 0 is no effect and 10 is complete control
# In short: as §1
# crabgrass = experiment: Test B pre/postemergence crabgrass; type: in vivo, Digitaria sanguinalis; details: for Crabgrass plant response rating: scale of 0 to 10 where 0 is no effect and 10 is complete control
# In short: as §1
# duck salad = experiment: Test B flood test duck salad; type: in vivo, Heteranthera limosa
# In short: as §2
# blackgrass = experiment: Test B pre/postemergence blackgrass; type: in vivo, Alopecurus myosuroides
# In short: as §1
# giant foxtail = experiment: Test B pre/postemergence giant foxtail; type: in vivo, Setaria faberii; details: for Giant foxtail plant response rating: scale of 0 to 10 where 0 is no effect and 10 is complete control
# In short: as §1
# soybean = experiment: Test B pre/postemergence soybean; type: in vivo, Glycine max; details: for Soybean plant response rating: scale of 0 to 10 where 0 is no effect and 10 is complete control
# In short: as §1
# bedstraw = experiment: Test B pre/postemergence bedstraw; type: in vivo, Galium aparine; details: Postemergence
# In short: as §1
# [1] = Postemergence, Rate 125 g/ha, scale 0 to 10, 0 is no effect, 10 is complete control
# [2] = Preemergence, Rate 62 g/ha, scale 0 to 10 (0 no effect, 10 complete control)
# [3] = Rate 500 g/ha, Postemergence, scale 0 to 10, 0 no effect, 10 complete control
# [4] = Postemergence (flood test), Rate 125 g/ha, scale 0 to 10, 0 is no effect, 10 is complete control
# [5] = Rate 62 g/ha, Postemergence (flood test species), scale of 0 to 10 where 0 is no effect and 10 is complete control
# [6] = Rate 500 g/ha, listed under Postemergence (flood test species), scale 0 to 10, 0 no effect, 10 complete control
# [7] = Preemergence, Rate 250 g/ha, scale of 0 to 10 where 0 is no effect and 10 is complete control
# [8] = Preemergence, Rate 500 g/ha, scale of 0 to 10 where 0 is no effect and 10 is complete control
# [9] = Rate 62 g/ha, Postemergence, scale of 0 to 10 where 0 is no effect and 10 is complete control
# [10] = Rate 250 g/ha, Postemergence, scale of 0 to 10 where 0 is no effect and 10 is complete control
structure (smiles),measurement,setting,value
CC(C)N(C(=O)n1oc(=O)n(CC2CCCO2)c1=O)c1ccc(F)cc1 (stereo not shown) [Compound 343],"Plant response rating, Corn",corn; [1],0
same,"Plant response rating, Corn",corn; [2],0
same,Corn plant response rating (0 to 10 scale),"corn; Preemergence, Rate 125 g/ha",0
same,Corn plant response rating,"corn; Preemergence, Rate 250 g/ha",0
same,Corn plant response rating,"corn; Preemergence, Rate 500 g/ha",4
same,Corn plant response rating,"corn; Rate 62 g/ha, Postemergence",0
same,"Plant response rating, Corn",corn; [3],2
same,"Plant response rating, S. Flatsedge",smallflower flatsedge; [4],0
same,S. Flatsedge plant response rating,smallflower flatsedge; [5],0
same,"Plant response rating, S. Flatsedge",smallflower flatsedge; [6],0
same,"Plant response rating, B. signalgrass",surinam grass; [1],4
same,"Plant response rating, B. signalgrass",surinam grass; [2],3
same,"B. signalgrass plant response rating (0 to 10 scale, 0 is no effect, 10 is complete control)","surinam grass; Preemergence, Rate 125 g/ha",4
same,B. signalgrass plant response rating,surinam grass; [7],6
same,B. signalgrass plant response rating,surinam grass; [8],8
same,B. signalgrass plant response rating,surinam grass; [9],2
same,"Plant response rating, B. signalgrass",surinam grass; [10],4
same,"Plant response rating, B. signalgrass",surinam grass; [3],7
same,"Plant response rating, Morningglory",morningglory; [1],2
same,"Plant response rating, Morningglory",morningglory; [2],0
same,Morningglory plant response rating (0 to 10 scale),"morningglory; Preemergence, Rate 125 g/ha",2
same,Morningglory plant response rating,"morningglory; Preemergence, Rate 500 g/ha",3
same,Morningglory plant response rating,"morningglory; Rate 62 g/ha, Postemergence",2
same,"Plant response rating, Morningglory",morningglory; [3],9
same,"Plant response rating, Wild oats",wild oat; [1],4
same,"Plant response rating, Wild oats",wild oat; [2],2
same,Wild oats plant response rating (0 to 10 scale),"wild oat; Preemergence, Rate 125 g/ha",4
same,Wild oats plant response rating,"wild oat; Preemergence, Rate 250 g/ha",9
same,Wild oats plant response rating,"wild oat; Preemergence, Rate 500 g/ha",9
same,Wild oats plant response rating,"wild oat; Rate 62 g/ha, Postemergence",0
same,"Plant response rating, Wild oats",wild oat; [3],4
same,"Plant response rating, Velvetleaf",velvetleaf; [1],0
same,"Plant response rating, Velvetleaf",velvetleaf; [2],5
same,Velvetleaf plant response rating (0 to 10 scale),"velvetleaf; Preemergence, Rate 125 g/ha",6
same,Velvetleaf plant response rating,"velvetleaf; Preemergence, Rate 250 g/ha",7
same,Velvetleaf plant response rating,"velvetleaf; Preemergence, Rate 500 g/ha",7
same,Velvetleaf plant response rating,"velvetleaf; Rate 62 g/ha, Postemergence",0
same,"Plant response rating, Velvetleaf",velvetleaf; [3],5
same,"Plant response rating, Rice",rice; [4],0
same,Rice plant response rating,rice; [5],0
same,"Plant response rating, Rice",rice; [6],0
same,"Plant response rating, Rape",rape; [1],0
same,"Plant response rating, Rape",rape; [2],0
same,Rape plant response rating (0 to 10 scale),"rape; Preemergence, Rate 125 g/ha",0
same,Rape plant response rating,"rape; Preemergence, Rate 250 g/ha",4
same,Rape plant response rating,"rape; Preemergence, Rate 500 g/ha",6
same,Rape plant response rating,"rape; Rate 62 g/ha, Postemergence",0
same,"Plant response rating, Rape",rape; [3],3
same,"Plant response rating, Wheat",wheat; [1],4
same,"Plant response rating, Wheat",wheat; [2],0
same,Wheat plant response rating (0 to 10 scale),"wheat; Preemergence, Rate 125 g/ha",0
same,Wheat plant response rating,"wheat; Preemergence, Rate 250 g/ha",0
same,Wheat plant response rating,"wheat; Preemergence, Rate 500 g/ha",5
same,Wheat plant response rating,"wheat; Rate 62 g/ha, Postemergence",2
same,"Plant response rating, Wheat",wheat; [3],5
same,"Plant response rating, Nutsedge",purple nutsedge; [1],0
same,"Plant response rating, Nutsedge",purple nutsedge; [2],0
same,Nutsedge plant response rating (0 to 10 scale),"purple nutsedge; Preemergence, Rate 125 g/ha",0
same,Nutsedge plant response rating,"purple nutsedge; Preemergence, Rate 250 g/ha",0
same,Nutsedge plant response rating,"purple nutsedge; Preemergence, Rate 500 g/ha",0
same,Nutsedge plant response rating,"purple nutsedge; Rate 62 g/ha, Postemergence",0
same,"Plant response rating, Nutsedge",purple nutsedge; [3],3
same,"Plant response rating, Crabgrass",crabgrass; [1],1
same,"Plant response rating, Crabgrass",crabgrass; [2],6
same,Crabgrass plant response rating (0 to 10 scale),"crabgrass; Preemergence, Rate 125 g/ha",9
same,Crabgrass plant response rating,"crabgrass; Preemergence, Rate 500 g/ha",10
same,Crabgrass plant response rating,"crabgrass; Rate 62 g/ha, Postemergence",1
same,"Plant response rating, Crabgrass",crabgrass; [3],6
same,"Plant response rating, Ducksalad",duck salad; [4],0
same,Ducksalad plant response rating,duck salad; [5],0
same,"Plant response rating, Ducksalad",duck salad; [6],0
same,"Plant response rating, Blackgrass",blackgrass; [1],3
same,"Plant response rating, Blackgrass",blackgrass; [2],7
same,Blackgrass plant response rating (0 to 10 scale),"blackgrass; Preemergence, Rate 125 g/ha",8
same,Blackgrass plant response rating,blackgrass; [7],9
same,Blackgrass plant response rating,blackgrass; [8],10
same,Blackgrass plant response rating,blackgrass; [9],3
same,"Plant response rating, Blackgrass",blackgrass; [10],5
same,"Plant response rating, Blackgrass",blackgrass; [3],6
same,"Plant response rating, Giant foxtail",giant foxtail; [1],7
same,"Plant response rating, Giant foxtail",giant foxtail; [2],10
same,Giant foxtail plant response rating (0 to 10 scale),"giant foxtail; Preemergence, Rate 125 g/ha",10
same,Giant foxtail plant response rating,"giant foxtail; Preemergence, Rate 250 g/ha",10
same,Giant foxtail plant response rating,"giant foxtail; Preemergence, Rate 500 g/ha",10
same,Giant foxtail plant response rating,"giant foxtail; Rate 62 g/ha, Postemergence",7
same,"Plant response rating, Giant foxtail",giant foxtail; [3],9
same,"Plant response rating, Soybean",soybean; [1],1
same,"Plant response rating, Soybean",soybean; [2],0
same,Soybean plant response rating (0 to 10 scale),"soybean; Preemergence, Rate 125 g/ha",0
same,Soybean plant response rating,"soybean; Preemergence, Rate 250 g/ha",0
same,Soybean plant response rating,"soybean; Preemergence, Rate 500 g/ha",0
same,Soybean plant response rating,"soybean; Rate 62 g/ha, Postemergence",1
same,"Plant response rating, Soybean",soybean; [3],3
same,"Plant response rating, Bedstraw","bedstraw; Rate 125 g/ha, scale 0 to 10, 0 is no effect, 10 is complete control",0
same,Bedstraw plant response rating,"bedstraw; Rate 62 g/ha, scale of 0 to 10 where 0 is no effect and 10 is complete control",0
same,"Plant response rating, Bedstraw","bedstraw; Rate 250 g/ha, scale of 0 to 10 where 0 is no effect and 10 is complete control",0
same,"Plant response rating, Bedstraw","bedstraw; Rate 500 g/ha, scale 0 to 10, 0 no effect, 10 complete control",3
